# ± gives the standard deviation of the averaged measurements.
# Legend:
# Conditions in all cases: 72 h
# [1] = test system: U2OS; assay: cell viability relative to DMSO; higher = less toxic
# [2] = test system: Caco-2; assay: as above
# [3] = test system: Vero E6; assay: as above
# [4] = test system: Calu-3; assay: as above
# [5] = test system: HepG2; assay: as above
# [6] = test system: U2OS; assay: drug sensitivity score (DSS) for viability; higher = more toxic; extreme values may be limits of the assay
# [7] = test system: Caco-2; assay: as above
# [8] = test system: Vero E6; assay: as above
# [9] = test system: Calu-3; assay: as above
# [10] = test system: HepG2; assay: as above
# [11] = test system: U2OS; assay: relative viability EC50 (midpoint between 100% and the lowest measured viability); higher = less toxic
# [12] = test system: Caco-2; assay: as above
# [13] = test system: Vero E6; assay: as above
# [14] = test system: Calu-3; assay: as above
# [15] = test system: HepG2; assay: as above
SMILES,cell viability ([1]; 1 nM),cell viability ([1]; 10 nM),cell viability ([1]; 100 nM),cell viability ([1]; 1000 nM),cell viability ([1]; 10000 nM),cell viability ([2]; 1 nM),cell viability ([2]; 10 nM),cell viability ([2]; 100 nM),cell viability ([2]; 1000 nM),cell viability ([2]; 10000 nM),cell viability ([3]; 1 nM),cell viability ([3]; 10 nM),cell viability ([3]; 100 nM),cell viability ([3]; 1000 nM),cell viability ([3]; 10000 nM),cell viability ([4]; 1 nM),cell viability ([4]; 10 nM),cell viability ([4]; 100 nM),cell viability ([4]; 1000 nM),cell viability ([4]; 10000 nM),cell viability ([5]; 1 nM),cell viability ([5]; 10 nM),cell viability ([5]; 100 nM),cell viability ([5]; 1000 nM),cell viability ([5]; 10000 nM),drug sensitivity score [6],drug sensitivity score [7],drug sensitivity score [8],drug sensitivity score [9],drug sensitivity score [10],relative viability EC50 [11],relative viability EC50 [12],relative viability EC50 [13],relative viability EC50 [14],relative viability EC50 [15]
CN1CCC(=C2c3ccccc3CCn3c(C=O)cnc32)CC1 [alcaftadine],108%,101%,101%,97.7%,99.6%,98.1%,90.6%,93.8%,98.5%,110%,89.4%,99.4%,87.1%,91.6%,107%,99.3%,99.5%,100%,87.4%,105%,92.7%,97.2%,103%,101%,104%,0,0,0,0,0,> 10 µM,> 10 µM,> 10 µM,> 10 µM,> 10 µM
C/C=C/c1cc(OC)c(OC)cc1OC [alpha-asarone],97.3%,101%,93.9%,100%,100%,87.7%,108%,88.3%,118%,93.5%,109%,86.1%,99.8%,101%,104%,94.6%,99.8%,102%,94%,105%,91.3%,107%,91.9%,93.3%,90.3%,0,0,0,0,0,> 10 µM,> 10 µM,> 10 µM,> 10 µM,> 10 µM
CC(=O)OCC(=O)[C@@]12OC3(CCCC3)O[C@@H]1C[C@H]1[C@@H]3CCC4=CC(=O)C=C[C@]4(C)[C@@]3(F)[C@@H](O)C[C@@]12C [amcinonide],101%,101%,92.6%,97.2%,91.5%,104%,105%,94.6%,107%,104%,102%,96.2%,99.6%,95.6%,95.4%,101%,103%,93.9%,89.3%,97%,108%,97.1%,98.2%,91.8%,99.8%,0,0,0,0.3,0,> 10 µM,> 10 µM,> 10 µM,> 10 µM,> 10 µM
Nc1ccncc1N [amifampridine],97.7%,95.5%,96.1%,95%,96.9%,99.2%,97.3%,91%,91%,103%,95.7%,100%,98.2%,97.7%,91.8%,106%,96.9%,96%,98.8%,98.1%,98.1%,96.4%,98%,93.7%,89.6%,0,0,0,0,0,> 10 µM,> 10 µM,> 10 µM,> 10 µM,> 10 µM
NCCCCCC(=O)O [aminocaproic-acid],104%,97.1%,101%,95%,98.5%,119%,99.3%,102%,105%,109%,102%,106%,98.6%,109%,92.6%,105%,90.6%,96.9%,91.3%,99.4%,81.2%,95%,96.6%,94.1%,90.9%,0,0,0,0,0,> 10 µM,> 10 µM,> 10 µM,> 10 µM,> 10 µM
O=C(O)C(F)(F)C(F)(F)C(F)(F)C(F)(F)C(F)(F)C(F)(F)C(F)(F)F [ammonium-perfluorocaprylate],104%,95.2%,101%,92.7%,104%,96%,96%,107%,95.4%,103%,98.2%,99.5%,99.8%,100%,96%,98%,110%,100%,93.6%,99.3%,113%,105%,97.3%,99.5%,102%,0,0,0,0,0,> 10 µM,> 10 µM,> 10 µM,> 10 µM,> 10 µM
CC(=O)Nc1ccc(OC[C@](C)(O)C(=O)Nc2ccc([N+](=O)[O-])c(C(F)(F)F)c2)cc1 [andarine],97.9%,102%,94.8%,98%,93.9%,97.4%,98.6%,87.3%,93.5%,99.2%,101%,104%,101%,96.3%,100%,93.1%,98.1%,90.2%,105%,90.3%,105%,98.8%,100%,103%,99%,0,0,0,0,0,> 10 µM,> 10 µM,> 10 µM,> 10 µM,> 10 µM
Nc1ccc([As](=O)(O)O)cc1 [arsanilic-acid],107%,107%,104%,97.5%,103%,108%,81.2%,86.6%,81.9%,95.8%,99.5%,98.8%,95.4%,97.1%,96.4%,114%,87.2%,101%,98.1%,97.7%,110%,103%,98.2%,99.3%,104%,0,6,0,0,0,> 10 µM,> 10 µM,> 10 µM,> 10 µM,> 10 µM
O=[N+]([O-])c1ncc[nH]1 [azomycin-(2-nitroimidazole)],89.5%,88.7%,94.9%,98.6%,101%,109%,104%,107%,87%,108%,99.6%,102%,101%,100%,100%,100%,102%,94%,92.5%,99.8%,104%,104%,102%,107%,93.8%,0,0,0,0,0,> 10 µM,> 10 µM,> 10 µM,> 10 µM,> 10 µM
NCC(CC(=O)O)c1ccc(Cl)cc1 (stereo not given) [baclofen],96.8 ± 1.1%,101 ± 2.5%,95.5 ± 2.3%,101 ± 5.4%,98.8 ± 8%,98.6 ± 7.2%,99.5 ± 3.1%,95 ± 7.8%,97.5 ± 3.8%,100 ± 5%,97.75 ± 0.071%,96.8 ± 1.7%,99.7 ± 3.2%,96.8 ± 3.8%,104 ± 6.9%,98.9 ± 7.8%,104 ± 5.4%,98.6 ± 2%,94.8 ± 4.7%,104 ± 4.7%,101 ± 2.9%,104 ± 9.8%,106.2 ± 0.99%,102 ± 7.6%,99.8 ± 1.3%,0,0,0,0,0,> 10 µM,> 10 µM,> 10 µM,> 10 µM,> 10 µM
NS(=O)(=O)c1cc2c(cc1Cl)N=C(CSCc1ccccc1)NS2(=O)=O [benzthiazide],100%,98.8%,94.6%,98.4%,96%,103%,101%,93.2%,96.2%,80.7%,102%,98.5%,98.4%,101%,98.9%,84.5%,104%,101%,106%,101%,105%,86%,101%,94.3%,89.7%,0,0.9,0,0,0,> 10 µM,> 10 µM,> 10 µM,> 10 µM,> 10 µM
COc1c2ccoc2cc2oc(=O)ccc12 [bergapten],95.4%,106%,93.2%,97.4%,102%,82.4%,94.1%,94.3%,99.4%,88.3%,103%,105%,99.8%,98.4%,82%,105%,119%,108%,103%,99%,95.7%,85.8%,90%,102%,96.3%,0,0,0.6,0,0,> 10 µM,> 10 µM,> 10 µM,> 10 µM,> 10 µM
C=C(C)[C@@H]1CC[C@]2(C(=O)O)CC[C@]3(C)[C@H](CC[C@@H]4[C@@]5(C)CC[C@H](OC(=O)CC(C)(C)C(=O)O)C(C)(C)[C@@H]5CC[C@]43C)[C@@H]12 [bevirimat-dimeglumine],99.4%,98.5%,99.6%,98.2%,96.8%,92%,95.6%,94.1%,102%,94.9%,96.8%,103%,96.9%,94.7%,102%,99.1%,103%,102%,92.9%,110%,91.3%,99.5%,103%,94.1%,96.7%,0,0,0,0,0,> 10 µM,> 10 µM,> 10 µM,> 10 µM,> 10 µM
COC(=O)c1cc(OC)c2c(c1-c1c(C(=O)OC)cc(OC)c3c1OCO3)OCO2 [bifendate],99.3%,99.3%,97.6%,99.5%,101%,112%,104%,98.4%,102%,89.6%,105%,105%,105%,94.6%,107%,94.4%,98.1%,101%,106%,104%,94.8%,84%,93.2%,93.8%,90.4%,0,0,0,0,0,> 10 µM,> 10 µM,> 10 µM,> 10 µM,> 10 µM

# From the supplement of paper PMC13380429
